# Test results taken from ChEMBL document CHEMBL1201862, “PubChem BioAssay data set” (2004).
#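 Interpolation was linear, between the two tested concentrations surrounding the appropriate level; five concentrations were tested over 48 hours in 96-well plates. Abbreviation: GI50, concentration required for 50% inhibition of growth.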 Active and inactive are the calls of the source. Cut-off read from the data, not from the text of the source: active = GI50 up to about 1.1 µM and inactive = higher.
# What was measured:
# Experiment in all cases: inhibition of tumour cell growth, NCI panel, 48 h
# LOX IMVI = tested on: LOX IMVI
# SN12C = tested on: SN12C
# EKVX = tested on: EKVX
# HOP-92 = tested on: HOP-92
# A498 = tested on: A498
# SW-620 = tested on: SW-620
# UO-31 = tested on: UO-31
# TK-10 = tested on: TK-10
# SF-268 = tested on: SF-268
# HL-60 = tested on: HL-60
# Hs-578T = tested on: Hs-578T
# DU-145 = tested on: DU-145
# HOP-62 = tested on: HOP-62
# SK-MEL-28 = tested on: SK-MEL-28
# K562 = tested on: K562
# HCT-15 = tested on: HCT-15
# MDA-MB-435 = tested on: MDA-MB-435
# U-251 = tested on: U-251
# NCI-H460 = tested on: NCI-H460
# SK-MEL-2 = tested on: SK-MEL-2
# OVCAR-5 = tested on: OVCAR-5
# M14 = tested on: M14
# OVCAR-4 = tested on: OVCAR-4
# HCT-116 = tested on: HCT-116
# RXF 393 = tested on: RXF 393
# CCRF-CEM = tested on: CCRF-CEM
# PC-3 = tested on: PC-3
# COLO 205 = tested on: COLO 205
# MDA-MB-231 = tested on: MDA-MB-231
# UACC-257 = tested on: UACC-257
# MOLT-4 = tested on: MOLT-4
# SNB-75 = tested on: SNB-75
# SNB-19 = tested on: SNB-19
# UACC-62 = tested on: UACC-62
# T47D = tested on: T47D
# A549 = tested on: A549
# NCI/ADR-RES = tested on: NCI/ADR-RES
# BT-549 = tested on: BT-549
# CAKI-1 = tested on: CAKI-1
# NCI-H23 = tested on: NCI-H23
# OVCAR-3 = tested on: OVCAR-3
# KM12 = tested on: KM12
# Malme-3M = tested on: Malme-3M
# NCI-H226 = tested on: NCI-H226
# MCF7 = tested on: MCF7
# SK-MEL-5 = tested on: SK-MEL-5
# SF-295 = tested on: SF-295
# RPMI-8226 = tested on: RPMI-8226
# IGROV-1 = tested on: IGROV-1
# OVCAR-8 = tested on: OVCAR-8
# SF-539 = tested on: SF-539
# NCI-H522 = tested on: NCI-H522
# SK-OV-3 = tested on: SK-OV-3
# ACHN = tested on: ACHN
# HT-29 = tested on: HT-29
# 786-0 = tested on: 786-0
# HCC 2998 = tested on: HCC 2998
compound,measurement,setting,value
O=C(O)CNc1ccc2c(c1)Cc1cc(Br)ccc1-2,GI50,LOX IMVI,26.6 µM (inactive)
same,GI50,SN12C,22.7 µM (inactive)
same,GI50,EKVX,5.2 µM (inactive)
same,GI50,HOP-92,25.6 µM (inactive)
same,GI50,A498,22 µM (inactive)
same,GI50,SW-620,24.2 µM (inactive)
same,GI50,UO-31,36 µM (inactive)
same,GI50,TK-10,31.1 µM (inactive)
same,GI50,SF-268,28.5 µM (inactive)
same,GI50,HL-60,23.4 µM (inactive)
same,GI50,Hs-578T,4.65 µM (inactive)
same,GI50,DU-145,25.9 µM (inactive)
same,GI50,HOP-62,> 44.6 µM (inactive)
same,GI50,SK-MEL-28,31.3 µM (inactive)
same,GI50,K562,9.29 µM (inactive)
same,GI50,HCT-15,31.1 µM
same,GI50,MDA-MB-435,15.3 µM (inactive)
same,GI50,U-251,26.6 µM (inactive)
same,GI50,NCI-H460,21.8 µM (inactive)
same,GI50,SK-MEL-2,26 µM (inactive)
same,GI50,OVCAR-5,27.5 µM (inactive)
same,GI50,M14,21.8 µM (inactive)
same,GI50,OVCAR-4,20.1 µM (inactive)
same,GI50,HCT-116,18.5 µM (inactive)
same,GI50,RXF 393,31 µM (inactive)
same,GI50,CCRF-CEM,22.1 µM (inactive)
same,GI50,PC-3,27.2 µM (inactive)
same,GI50,COLO 205,21.1 µM (inactive)
same,GI50,MDA-MB-231,19.7 µM (inactive)
same,GI50,UACC-257,22.8 µM (inactive)
same,GI50,MOLT-4,0.746 µM (active)
same,GI50,SNB-75,34.6 µM (inactive)
same,GI50,SNB-19,24.3 µM (inactive)
same,GI50,UACC-62,17.4 µM (inactive)
same,GI50,T47D,20.4 µM (inactive)
same,GI50,A549,21.3 µM (inactive)
same,GI50,NCI/ADR-RES,25.6 µM (inactive)
same,GI50,BT-549,23.3 µM (inactive)
same,GI50,CAKI-1,19.5 µM (inactive)
same,GI50,NCI-H23,18 µM (inactive)
same,GI50,OVCAR-3,28.5 µM (inactive)
same,GI50,KM12,9.57 µM (inactive)
same,GI50,Malme-3M,20.6 µM (inactive)
same,GI50,NCI-H226,21.2 µM (inactive)
same,GI50,MCF7,> 38.4 µM (inactive)
same,GI50,SK-MEL-5,6.55 µM (inactive)
same,GI50,SF-295,24.5 µM (inactive)
same,GI50,RPMI-8226,19.9 µM (inactive)
same,GI50,IGROV-1,18 µM (inactive)
same,GI50,OVCAR-8,23.9 µM (inactive)
same,GI50,SF-539,23.7 µM (inactive)
same,GI50,NCI-H522,18.5 µM (inactive)
same,GI50,SK-OV-3,26.5 µM (inactive)
same,GI50,ACHN,33.1 µM (inactive)
same,GI50,HT-29,27.1 µM (inactive)
same,GI50,786-0,39.6 µM (inactive)
COc1cc(C2SCC(=O)N2NC(=O)c2ccc(NC(C)=O)cc2)cc(OC)c1OC (configuration not stated),GI50,SN12C,> 100 µM (inactive)
same,GI50,EKVX,> 100 µM (inactive)
same,GI50,HOP-92,> 100 µM (inactive)
same,GI50,A498,> 100 µM (inactive)
same,GI50,SW-620,> 100 µM (inactive)
same,GI50,UO-31,> 100 µM (inactive)
same,GI50,TK-10,> 100 µM (inactive)
same,GI50,SF-268,> 100 µM (inactive)
same,GI50,HL-60,> 100 µM (inactive)
same,GI50,Hs-578T,> 100 µM (inactive)
same,GI50,DU-145,> 100 µM (inactive)
same,GI50,HOP-62,> 100 µM (inactive)
same,GI50,SK-MEL-28,> 100 µM (inactive)
same,GI50,K562,35.8 µM (inactive)
same,GI50,HCT-15,> 100 µM
same,GI50,MDA-MB-435,> 100 µM (inactive)
same,GI50,U-251,> 100 µM (inactive)
same,GI50,NCI-H460,> 100 µM (inactive)
same,GI50,SK-MEL-2,> 100 µM (inactive)
same,GI50,OVCAR-5,> 100 µM (inactive)
same,GI50,M14,> 100 µM (inactive)
same,GI50,OVCAR-4,> 100 µM (inactive)
same,GI50,HCT-116,> 100 µM (inactive)
same,GI50,RXF 393,> 100 µM (inactive)
same,GI50,COLO 205,> 100 µM (inactive)
same,GI50,MDA-MB-231,> 100 µM (inactive)
same,GI50,UACC-257,> 100 µM (inactive)
same,GI50,MOLT-4,> 100 µM (inactive)
same,GI50,HCC 2998,> 100 µM (inactive)
same,GI50,SNB-75,> 100 µM (inactive)
same,GI50,SNB-19,> 100 µM (inactive)
same,GI50,UACC-62,> 100 µM (inactive)
same,GI50,T47D,> 100 µM (inactive)
same,GI50,A549,> 100 µM (inactive)
same,GI50,NCI/ADR-RES,> 100 µM (inactive)
same,GI50,BT-549,> 100 µM (inactive)
same,GI50,NCI-H23,> 100 µM (inactive)
same,GI50,OVCAR-3,> 100 µM (inactive)
same,GI50,KM12,> 100 µM (inactive)
same,GI50,NCI-H226,> 100 µM (inactive)
same,GI50,MCF7,> 100 µM (inactive)
same,GI50,SK-MEL-5,> 100 µM (inactive)
same,GI50,SF-295,> 100 µM (inactive)
same,GI50,RPMI-8226,> 100 µM (inactive)
same,GI50,IGROV-1,> 100 µM (inactive)
same,GI50,OVCAR-8,> 100 µM (inactive)
same,GI50,SF-539,> 100 µM (inactive)
same,GI50,SK-OV-3,> 100 µM (inactive)
same,GI50,ACHN,> 100 µM (inactive)
same,GI50,HT-29,> 100 µM (inactive)
same,GI50,786-0,> 100 µM (inactive)
